Data as given in patent publication US5670138A, “Mouth-care products” (Sara Lee/DE N.V., priority 1994, dated 1997).

How the values were obtained:
[1] = system: acid phosphatase and pyrophosphatase; test: Inhibition of the enzymatic hydrolysis of pyrophosphate; type: biochemical; conditions: 480 ppm pyrophosphate, tris buffer pH=7
Protocol: To a solution, 3 ml, containing 480 ppm of pyrophosphate, various polymers, as defined in the table, optionally in combination with fluoride, and tris buffer (pH=7), 6*10^-2 U acid phosphatase and 4*10^-2 U pyrophosphatase ware added. The enzymatic hydrolysis of pyrophosphatase was determined by the withdrawal of 0.5 ml samples and measuring the orthophosphate concentration (V/MO complex).

[2] = Triclosan concentration in supernatant with polymer; conditions: 3000 ppm triclosan, no polymer
Protocol: Polymer and 3000 ppm bactericide (Bromochlorophene (BCP) or triclosan) were solved in distilled water at pH=12.5 (NaOH). […] The bactericide concentration was determined at pH 8, 7 or 6 in the supernatant solution by UV/VIS at pH=12.5 and 37° C.

ppm triclosan in supernatant at pH 6 [2]	ppm triclosan in supernatant at pH 7 [2]	ppm triclosan in supernatant at pH 8 [2]	SMILES	ppm orthophosphate after 60 min [1]	ppm orthophosphate after 120 min [1]	ppm orthophosphate after 240 min [1]
–	–	–	[F-].[Na+] [NaF, sodium fluoride]	1.8 ppm	3.9 ppm	9.6 ppm
7 ± 3 ppm	15 ± 1 ppm	30 ± 2 ppm	Oc1cc(Cl)ccc1Oc1ccc(Cl)cc1Cl [triclosan, 5-chloro-2-(2,4-dichlorophenoxy)phenol]	–	–	–
